Source: paper doi:10.1101/2022.12.16.520736v1 (biorxiv, 2022)
Read-outs that look alike come from different tables or passages of the source.

System: CK2 activity in cell extracts
Conditions: then lysed

Structure (SMILES): CC(C)COC(=O)c1[nH]c2ccc(F)cc2c1-c1cn(CC2CCN(CCNS(=O)(=O)c3ccc(CC(C)C)cc3)CC2)nn1 [AB668]
- IC50 (786-O cells treated with the inhibitor): 340 ± 70 nM
- IC50 (HEK293 cells treated with the inhibitor): 600 ± 110 nM
